Biological target: T1, human mAChR M4 (Homo sapiens, UniProt P08173)
T1 construct: expressed in transfected cells; host or cells: CHO-K1 (American Type Culture Collection), stably expressing hM4 and Gqi5
T1 sequence (P08173 1-479): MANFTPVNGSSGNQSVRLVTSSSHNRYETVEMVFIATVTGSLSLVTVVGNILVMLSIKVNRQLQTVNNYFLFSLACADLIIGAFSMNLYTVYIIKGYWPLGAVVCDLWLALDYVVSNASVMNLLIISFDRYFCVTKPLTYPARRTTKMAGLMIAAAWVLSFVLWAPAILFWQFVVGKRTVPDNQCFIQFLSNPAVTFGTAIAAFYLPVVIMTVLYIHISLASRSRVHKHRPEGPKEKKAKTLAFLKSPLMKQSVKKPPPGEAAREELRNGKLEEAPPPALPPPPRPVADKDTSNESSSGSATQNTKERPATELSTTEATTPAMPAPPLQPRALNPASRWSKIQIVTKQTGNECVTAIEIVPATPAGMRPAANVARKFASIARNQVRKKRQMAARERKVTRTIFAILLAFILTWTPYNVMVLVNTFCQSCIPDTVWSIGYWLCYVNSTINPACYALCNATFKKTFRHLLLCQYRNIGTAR
Test: mAChR M4 cell-based functional assay: calcium mobilization (Fluo-4, FDSS), potentiation of EC20 acetylcholine response in hM4-Gqi5 CHO-K1 cells
Settings: human M4; for Emax at 30 µM: CHO-K1, % ACh maximum at 30 μM; for EC50: potentiation of EC20 acetylcholine response, calcium mobilization
Summary of the method: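 Readout is the fluorescence-ratio rise at 1 Hz on FDSS, with PAM activity taken as concentration-dependent enhancement of the EC20 acetylcholine response, fitted four-parameter for EC50/Emax. hM4-Gqi5 CHO-K1 cells carried Fluo-4 AM dye; test compounds (11 points, 1:3) preceded EC20 acetylcholine additions at 144 s and 230 s.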

Which results are given for `Cc1cc2nccc(=O)n2nc1N1CCc2ncc(NCC(C)C)cc2C1` [Compound 2-90, 7-(3-(isobutylamino)-7,8-dihydro-1,6-naphthyridin-6(5H)-yl)-8-methyl-4H-pyrimido[1,2-b]pyridazin-4-one]?
Emax at 30 µM: 69%; EC50: 798 nM

What does the source list for `Cc1cc2nccc(=O)n2nc1N1CCc2ncc(NCC3CCOCC3)cc2C1` [Compound 2-91, 8-methyl-7-(3-(((tetrahydro-2H-pyran-4-yl)methyl)amino)-7,8-dihydro-1,6-naphthyridin-6(5H)-yl)-4H-pyrimido[1,2-b]pyridazin-4-one]?
Emax at 30 µM: 80%; EC50: 1820 nM

What does the source list for `CCN(CC)c1cnc2c(c1)CN(c1nn3c(=O)ccnc3cc1C)CC2` [Compound 2-92, 7-(3-(diethylamino)-7,8-dihydro-1,6-naphthyridin-6(5H)-yl)-8-methyl-4H-pyrimido[1,2-b]pyridazin-4-one]?
Emax at 30 µM: 70%; EC50: 863 nM

With `Cc1cc2nccc(=O)n2nc1N1CCc2ncc(N3CCOC(c4ccncc4)C3)cc2C1` (centres unmarked) [Compound 2-93, 8-methyl-7-(3-(2-(pyridin-4-yl)morpholino)-7,8-dihydro-1,6-naphthyridin-6(5H)-yl)-4H-pyrimido[1,2-b]pyridazin-4-one] as the compound, how does the Emax at 30 µM read?
Its Emax at 30 µM is 75%.

What about the EC50 of the same compound?
The EC50 was 1170 nM.

`Cc1cc2nccc(=O)n2nc1N1CCc2ncc(Nc3cccc(F)c3C)cc2C1` [Compound 2-94, 7-(3-((3-fluoro-2-methylphenyl)amino)-7,8-dihydro-1,6-naphthyridin-6(5H)-yl)-8-methyl-4H-pyrimido[1,2-b]pyridazin-4-one] was tested. Which Emax at 30 µM did it give?
Its Emax at 30 µM is 84%.

And the EC50?
Its EC50 is 78 nM.

Which results are given for `COc1ccc(C2CN(c3cnc4c(c3)CN(c3nn5c(=O)ccnc5cc3C)CC4)CCO2)cc1` (centres unmarked) [Compound 2-95, 7-(3-(2-(4-methoxyphenyl)morpholino)-7,8-dihydro-1,6-naphthyridin-6(5H)-yl)-8-methyl-4H-pyrimido[1,2-b]pyridazin-4-one]?
Emax at 30 µM: 64%; EC50: 814 nM

Which results are given for `Cc1cc2nccc(=O)n2nc1N1CCc2ncc(Nc3ccncc3)cc2C1` [Compound 2-97, 8-methyl-7-(3-(pyridin-4-ylamino)-7,8-dihydro-1,6-naphthyridin-6(5H)-yl)-4H-pyrimido[1,2-b]pyridazin-4-one]?
Emax at 30 µM: 96%; EC50: 92 nM

With `Cc1cc2nccc(=O)n2nc1N1CCc2ncc(Nc3ccccc3F)cc2C1` [Compound 2-98, 7-(3-((2-fluorophenyl)amino)-7,8-dihydro-1,6-naphthyridin-6(5H)-yl)-8-methyl-4H-pyrimido[1,2-b]pyridazin-4-one] as the compound, how does the Emax at 30 µM read?
The Emax at 30 µM was 90%.

And the EC50?
The EC50 was 19 nM.

`Cc1cc2nccc(=O)n2nc1N1CCc2ncc(N3CCOC(Cc4ccccc4)C3)cc2C1` (centres unmarked) [Compound 2-99, 7-(3-(2-benzylmorpholino)-7,8-dihydro-1,6-naphthyridin-6(5H)-yl)-8-methyl-4H-pyrimido[1,2-b]pyridazin-4-one] was tested. Which Emax at 30 µM did it give?
Its Emax at 30 µM is 66%.

What about the EC50 of the same compound?
The EC50 was 416 nM.

Which Emax at 30 µM does the source give for `Cc1cc2nccc(=O)n2nc1N1CCc2ncc(Nc3cc(F)nc(F)c3)cc2C1` [Compound 2-100, 7-(3-((2,6-difluoropyridin-4-yl)amino)-7,8-dihydro-1,6-naphthyridin-6(5H)-yl)-8-methyl-4H-pyrimido[1,2-b]pyridazin-4-one] here?
The Emax at 30 µM was 101%.

What about the EC50 of the same compound?
Its EC50 is 39 nM.

`Cc1cc2nccc(=O)n2nc1N1CCc2ncc(Nc3ccc(C(C)C)nc3)cc2C1` [Compound 2-101, 7-(3-((6-isopropylpyridin-3-yl)amino)-7,8-dihydro-1,6-naphthyridin-6(5H)-yl)-8-methyl-4H-pyrimido[1,2-b]pyridazin-4-one] was tested. Which Emax at 30 µM did it give?
The Emax at 30 µM was 65%.

And the EC50?
Its EC50 is 527 nM.

With `Cc1cnccc1Nc1cnc2c(c1)CN(c1nn3c(=O)ccnc3cc1C)CC2` [Compound 2-102, 8-methyl-7-(3-((3-methylpyridin-4-yl)amino)-7,8-dihydro-1,6-naphthyridin-6(5H)-yl)-4H-pyrimido[1,2-b]pyridazin-4-one] as the compound, how does the Emax at 30 µM read?
Its Emax at 30 µM is 84%.

What about the EC50 of the same compound?
The EC50 was 585 nM.

What does the source list for `Cc1cc2nccc(=O)n2nc1N1CCc2ncc(N3CCCc4cc(F)ccc43)cc2C1` [Compound 2-103, 7-(3-(6-fluoro-3,4-dihydroquinolin-1(2H)-yl)-7,8-dihydro-1,6-naphthyridin-6(5H)-yl)-8-methyl-4H-pyrimido[1,2-b]pyridazin-4-one]?
Emax at 30 µM: 89%; EC50: 33 nM

How did the Emax at 30 µM turn out when `Cc1cc2nccc(=O)n2nc1N1CCc2ncc(Nc3cc(F)cc(C#N)c3)cc2C1` [Compound 2-104, 3-fluoro-5-((6-(8-methyl-4-oxo-4H-pyrimido[1,2-b]pyridazin-7-yl)-5,6,7,8-tetrahydro-1,6-naphthyridin-3-yl)amino)benzonitrile] was run?
The Emax at 30 µM was 85%.

What about the EC50 of the same compound?
Its EC50 is 46 nM.

Which Emax at 30 µM does the source give for `Cc1cc2nccc(=O)n2nc1N1CCc2ncc(Nc3cc(F)cc(F)c3)cc2C1` [Compound 2-105, 7-(3-((3,5-difluorophenyl)amino)-7,8-dihydro-1,6-naphthyridin-6(5H)-yl)-8-methyl-4H-pyrimido[1,2-b]pyridazin-4-one] here?
The Emax at 30 µM was 88%.

What about the EC50 of the same compound?
The EC50 was 19 nM.

For `Cc1cc2nccc(=O)n2nc1N1CCc2ncc(Nc3cccc(F)c3F)cc2C1` [Compound 2-106, 7-(3-((2,3-difluorophenyl)amino)-7,8-dihydro-1,6-naphthyridin-6(5H)-yl)-8-methyl-4H-pyrimido[1,2-b]pyridazin-4-one], which Emax at 30 µM is on record?
Its Emax at 30 µM is 84%.

What about the EC50 of the same compound?
The EC50 was 32 nM.

For `Cc1cc2nccc(=O)n2nc1N1CCc2ncc(Nc3cccc(F)n3)cc2C1` [Compound 2-107, 7-(3-((6-fluoropyridin-2-yl)amino)-7,8-dihydro-1,6-naphthyridin-6(5H)-yl)-8-methyl-4H-pyrimido[1,2-b]pyridazin-4-one], which Emax at 30 µM is on record?
Its Emax at 30 µM is 79%.

And the EC50?
Its EC50 is 437 nM.

How did the Emax at 30 µM turn out when `Cc1cc2nccc(=O)n2nc1N1CCc2ncc(NC(=O)C3CC3)cc2C1` [Compound 2-108, N-(6-(8-methyl-4-oxo-4H-pyrimido[1,2-b]pyridazin-7-yl)-5,6,7,8-tetrahydro-1,6-naphthyridin-3-yl)cyclopropanecarboxamide] was run?
The Emax at 30 µM was 56%.

What about the EC50 of the same compound?
The EC50 was 1650 nM.

With `Cc1cc2nccc(=O)n2nc1N1CCc2ncc(NC(=O)C3COC3)cc2C1` [Compound 2-109, N-(6-(8-methyl-4-oxo-4H-pyrimido[1,2-b]pyridazin-7-yl)-5,6,7,8-tetrahydro-1,6-naphthyridin-3-yl)oxetane-3-carboxamide] as the compound, how does the Emax at 30 µM read?
The Emax at 30 µM was 30%.

With `Cc1cc2nccc(=O)n2nc1N1CCc2ncc(NC(=O)C3CCOCC3)cc2C1` [Compound 2-110, N-(6-(8-methyl-4-oxo-4H-pyrimido[1,2-b]pyridazin-7-yl)-5,6,7,8-tetrahydro-1,6-naphthyridin-3-yl)tetrahydro-2H-pyran-4-carboxamide] as the compound, how does the Emax at 30 µM read?
The Emax at 30 µM was 47%.

What about the EC50 of the same compound?
The EC50 was 2200 nM.

For `Cc1cc2nccc(=O)n2nc1N1CCc2ncc(Nc3ccncc3F)cc2C1` [Compound 2-111, 7-(3-((3-fluoropyridin-4-yl)amino)-7,8-dihydro-1,6-naphthyridin-6(5H)-yl)-8-methyl-4H-pyrimido[1,2-b]pyridazin-4-one], which Emax at 30 µM is on record?
Its Emax at 30 µM is 98%.

And the EC50?
Its EC50 is 11 nM.

How did the Emax at 30 µM turn out when `COc1cnccc1Nc1cnc2c(c1)CN(c1nn3c(=O)ccnc3cc1C)CC2` [Compound 2-112, 7-(3-((3-methoxypyridin-4-yl)amino)-7,8-dihydro-1,6-naphthyridin-6(5H)-yl)-8-methyl-4H-pyrimido[1,2-b]pyridazin-4-one] was run?
The Emax at 30 µM was 64%.

And the EC50?
The EC50 was 2710 nM.

What does the source list for `Cc1cc2nccc(=O)n2nc1N1CCc2ncc(Nc3ccncc3Cl)cc2C1` [Compound 2-113, 7-(3-((3-chloropyridin-4-yl)amino)-7,8-dihydro-1,6-naphthyridin-6(5H)-yl)-8-methyl-4H-pyrimido[1,2-b]pyridazin-4-one]?
Emax at 30 µM: 97%; EC50: 48 nM

How did the Emax at 30 µM turn out when `Cc1cc2nccc(=O)n2nc1N1CCc2ncc(Nc3c(F)ccnc3C)cc2C1` [Compound 2-114, 7-(3-((4-fluoro-2-methylpyridin-3-yl)amino)-7,8-dihydro-1,6-naphthyridin-6(5H)-yl)-8-methyl-4H-pyrimido[1,2-b]pyridazin-4-one] was run?
Its Emax at 30 µM is 82%.

What about the EC50 of the same compound?
Its EC50 is 165 nM.

Which results are given for `Cc1ccc(Nc2cnc3c(c2)CN(c2nn4c(=O)ccnc4cc2C)CC3)c(F)n1` [Compound 2-115, 7-(3-((2-fluoro-6-methylpyridin-3-yl)amino)-7,8-dihydro-1,6-naphthyridin-6(5H)-yl)-8-methyl-4H-pyrimido[1,2-b]pyridazin-4-one]?
Emax at 30 µM: 93%; EC50: 329 nM

How did the Emax at 30 µM turn out when `Cc1cc2nccc(=O)n2nc1N1CCc2ncc(Nc3cc(Cl)cnc3F)cc2C1` [Compound 2-116, 7-(3-((5-chloro-2-fluoropyridin-3-yl)amino)-7,8-dihydro-1,6-naphthyridin-6(5H)-yl)-8-methyl-4H-pyrimido[1,2-b]pyridazin-4-one] was run?
Its Emax at 30 µM is 92%.

What about the EC50 of the same compound?
Its EC50 is 52 nM.

How did the Emax at 30 µM turn out when `Cc1cc2nccc(=O)n2nc1N1CCc2ncc(NS(C)(=O)=O)cc2C1` [Compound 2-117, N-(6-(8-methyl-4-oxo-4H-pyrimido[1,2-b]pyridazin-7-yl)-5,6,7,8-tetrahydro-1,6-naphthyridin-3-yl)methanesulfonamide] was run?
Its Emax at 30 µM is 83%.

What about the EC50 of the same compound?
The EC50 was 2760 nM.

From US20250101041A1, “POSITIVE ALLOSTERIC MODULATORS OF THE MUSCARINIC ACETYLCHOLINE RECEPTOR M4” (Vanderbilt University, priority 2022, published 2025)
